Experimental data as given in patent publication US20240124439A1, “Pyrido[2,3-D]Imidazole Derivatives and Their Use As Inhibitors of ITK for the Treatment of Skin Disease” (Pfizer Inc., priority 2020, published 2024).

Legend:
[1] = system: activated CD4+ human T-cells (IL-2); test: IL-2 inhibition in supernatants from activated CD4+ human T-cells (cisbio HTRF); assay type: cell-based; conditions: T-cell; CD3/CD28-activated CD4+ human T cells, ImmunoCult stimulation 20 to 24 hrs; geometric mean of count n
Procedure: IL-2 inhibition activity in supernatants from activated CD4+ human T-cells was determined by measuring the effect of a test compound on the activity using the cisbio HTRF™ technology.
Human CD4+ T cells were activated with CD3/CD28 for 3 days and expanded for an additional 4-6 days (7 to 9 days total). On day 0, frozen CD4+ T cells were thawed, treated with CD3/CD28 Dynabeads, and incubated at 37° C./5% CO2. On day 3, the beads were removed, and the cells were diluted to 5×10^5 cells/cm^2, placed in G-Rex10 flask, and incubated at 37° C./5% CO2. On day 7 to day 9 the cells were removed from the G-Rex flasks, counted and diluted back to 1×10^6 cells/ml in standard tissue culture flask.
The expanded CD4+ T-cells were centrifuged at 300×g for 10 minutes and resuspended to 0.5 million cells per ml (30,000 cells/well). 60 μl of CD4+ T cells were added per well to a 384 well plate containing 0.1 μL of varying concentrations of test compound in DMSO. The plates were incubated for 15 min at 37° C./5% CO2. 20 μl of diluted ImmunoCult™ (STEMCELL Technologies, 1:12.5 in T cell assay media) were added to all wells of the plate (1:50 final assay concentration). The plates were incubated for an additional 20 to 24 hrs at 37° C./5% CO2. The plates were centrifuged at 300×g for 10 minutes. 16 μL of supernatant was removed and combined with 4 μl of IL-2 HTRF Abs. (cisbio kit). Plates were incubated for 3 hours at RT and read with an EnVision plate reader at 665 nm and 615 nm wavelengths. The concentrations and resulting effect values for the tested compound were plotted and the concentration of compound required for 50% effect (IC50) was determined with the four-parameter logistic dose response equation.

[2] = biological target: IL-2-Inducible T-Cell Kinase (ITK) (Homo sapiens (Human), UniProt Q08881); test: ITK enzyme assay (IL-2-inducible T-cell kinase activity); assay type: biochemical; conditions: geometric mean of count n
IL-2-Inducible T-Cell Kinase (ITK), sequence (Q08881 whole entry): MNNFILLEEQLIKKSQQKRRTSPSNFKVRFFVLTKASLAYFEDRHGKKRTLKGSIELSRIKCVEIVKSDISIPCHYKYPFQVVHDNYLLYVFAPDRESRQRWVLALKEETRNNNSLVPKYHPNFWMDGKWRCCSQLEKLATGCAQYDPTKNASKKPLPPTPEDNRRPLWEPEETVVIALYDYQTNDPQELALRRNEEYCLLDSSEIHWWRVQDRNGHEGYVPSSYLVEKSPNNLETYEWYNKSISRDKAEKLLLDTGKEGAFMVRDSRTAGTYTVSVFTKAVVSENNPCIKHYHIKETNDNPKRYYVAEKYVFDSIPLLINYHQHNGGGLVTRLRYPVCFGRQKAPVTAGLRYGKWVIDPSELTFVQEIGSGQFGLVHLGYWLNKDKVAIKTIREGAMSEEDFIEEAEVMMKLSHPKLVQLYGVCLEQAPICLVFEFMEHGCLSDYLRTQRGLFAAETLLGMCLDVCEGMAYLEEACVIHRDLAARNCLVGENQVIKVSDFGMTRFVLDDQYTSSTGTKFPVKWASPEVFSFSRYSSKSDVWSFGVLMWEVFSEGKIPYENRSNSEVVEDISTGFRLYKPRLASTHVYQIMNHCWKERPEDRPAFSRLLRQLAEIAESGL
Procedure: ITK activity was determined by measuring the effect of a test compound in an ITK enzyme assay.
1.0 M HEPES Buffer pH 7.5 solution was prepared as follows: 238.3 g HEPES free acid (Sigma) and 800 mL of water were combined, and the mixture was stirred until complete dissolution. The pH was adjusted to 7.5 via titration with 5N NaOH and the volume adjusted to 1000 mL. The solution was filtered and sterilized.
ITK assay buffer was prepared as follows: 50 mL of HPLC-grade water was treated with 2 mL of 1.0 M HEPES Buffer, 500 μL of 2% Gelatin (Sigma), 1.0 mL of aqueous MgCl2 solution (1.0 M), and 1.0 mL of aqueous glutathione solution (0.5 M), and the solution was mixed. The solution was brought to 99 mL in a graduated cylinder by addition of water and sterilized through a 0.2 μm filter. 0.1 mL of Brij-35™ Surfact-Amps™ Detergent Solution (10% w/v aqueous solution, ThermoFisher) and 1.0 mL of ATP (Teknova,100 mM) were added and the solution was mixed.
Preparation of 1.33× ITK enzyme solution was as follows: 49.99 mL of ITK assay buffer was treated with 4.1 μL of ITK enzyme (ITK FL (N-Flag and C-His tagged, […]) Lake Pharma, 0.25 mg/ml in a buffer containing 25 mM Tris pH 7.8, 150 mM NaCl, 10% glycerol and 2 mM TCEP) and the mixture was gently agitated. The resulting solution was stored on ice. 30 Minutes prior to use, the enzyme solution was removed from ice and equilibrated to RT by incubation in a RT water bath.
Preparation of 4× ITK substrate solution was as follows: 50 mL of ITK assay buffer was treated with 100 μL of BTK peptide (China Peptide Company, 2 mM stock solution in DMSO). The tube was capped, mixed by gently inverting the tube, and then stored on ice. 30 Minutes prior to use, the substrate solution was removed from ice and equilibrated to RT by incubation in a RT water bath.
At the time of assay, 7.5 μL of the 1.33× ITK enzyme solution was added to plate wells containing 0.1 μL of varying concentrations of test compound in DMSO. The plate was incubated 30 min at RT. The plate wells were each treated with 2.5 uL of the 4× ITK substrate solution and the plate was sealed (TopSeal™, Perkin Elmer). The plate was spun at 1000 rpm for 30 sec and then incubated for 60 min at RT. The seal was removed, and each well was treated with 10 μL of Stop/Detect Buffer (20 mM HEPES pH 7.5, 0.01% gelatin, 1 nM LANCE PT66 (Perkin Elmer), 16.5 μg/ml Surelight APC (Perkin Elmer), 10 mM EDTA, 250 mM NaCl). The plate was again covered and was spun at 1000 rpm for […]. The plate was allowed to incubate overnight at RT and in a closed carrier to reduce dehydration. The seal was removed, and the fluorescence was read with a plate reader with an excitation wavelength of […]. The concentrations and resulting effect values for the tested compound were plotted and the concentration of compound required for 50% effect (IC50) was determined with the four-parameter logistic dose response equation.

SMILES	IC50 [1]	IC50 [2]
CN(C(=O)C1(C)CCCCO1)c1cnc2[nH]c(-c3n[nH]c4c3CCC(C)(C)C4)nc2c1 (stereo not shown) [Example 112, N-(2-(6,6-Dimethyl-4,5,6,7-tetrahydro-1H-indazol-3-yl)-3H-imidazo[4,5-b]pyridin-6-yl)-N,2-dimethyltetrahydro-2H-pyran-2-carboxamide]	895 nM	234 nM
CC(C)[C@@H](C(=O)N(C)c1cnc2[nH]c(-c3n[nH]c4c3CC3C[C@]3(C)C4)nc2c1)N1CCOCC1 (stereo in doubt) [Example 3, (S)-N,3-Dimethyl-N-(2-((4aR,5aR)-5a-methyl-1,4,4a,5,5a,6-hexahydrocyclopropa[f]indazol-3-yl)-3H-imidazo[4,5-b]pyridin-6-yl)-2-morpholinobutanamide]	320 nM	38 nM
C[C@H](C(=O)N(C)c1cnc2[nH]c(-c3n[nH]c4c3C[C@@H]3C[C@]3(C)C4)nc2c1)N1CCCOCC1 [Example 44, (R)-N-Methyl-N-(2-((4aS,5aR)-5a-methyl-1,4,4a,5,5a,6-hexahydrocyclopropa[f]indazol-3-yl)-3H-imidazo[4,5-b]pyridin-6-yl)-2-(1,4-oxazepan-4-yl)propenamide]	226 nM	101 nM
CN(C(=O)CC(C)(C)C)c1cnc2nc(-c3n[nH]c4c3C[C@@H]3C[C@]3(C)C4)[nH]c2c1 [Example 73, N,3,3-Trimethyl-N-(2-((4aS,5aR)-5a-methyl-1,4,4a,5,5a,6-hexahydrocyclopropa[f]indazol-3-yl)-1H-imidazo[4,5-b]pyridin-6-yl)butanamide]	498 nM	57 nM
CN(C(=O)C1CCCCC1)c1cnc2nc(-c3n[nH]c4c3C[C@@H]3C[C@]3(C)C4)[nH]c2c1 [Example 51, N-Methyl-N-(2-((4aS,5aR)-5a-methyl-1,4,4a,5,5a,6-hexahydrocyclopropa[f]indazol-3-yl)-1H-imidazo[4,5-b]pyridin-6-yl)cyclohexanecarboxamide]	108 nM	37 nM
C[C@@H](C(=O)N(C)c1cnc2[nH]c(-c3n[nH]c4c3C[C@@H]3C[C@]3(C)C4)nc2c1)N1C[C@H]2CC[C@@H]1CO2 [Example 116, (S)-2-((1R,4R)-2-Oxa-5-azabicyclo[2.2.2]octan-5-yl)-N-methyl-N-(2-((4aS,5aR)-5a-methyl-1,4,4a,5,5a,6-hexahydrocyclopropa[f]indazol-3-yl)-3H-imidazo[4,5-b]pyridin-6-yl)propanamide]	172 nM	18 nM
CN(C(=O)CC1CCOCC1)c1cnc2[nH]c(-c3n[nH]c4c3CCC(C)(C)C4)nc2c1 [Example 114, N-(2-(6,6-Dimethyl-4,5,6,7-tetrahydro-1H-indazol-3-yl)-3H-imidazo[4,5-b]pyridin-6-yl)-N-methyl-2-(tetrahydro-2H-pyran-4-yl)acetamide]	1510 nM	156 nM
CN(C(=O)C1(C)CCC1)c1cnc2[nH]c(-c3n[nH]c4c3CCC(C)(C)C4)nc2c1 [Example 104, N-(2-(6,6-Dimethyl-4,5,6,7-tetrahydro-1H-indazol-3-yl)-3H-imidazo[4,5-b]pyridin-6-yl)-N,1-dimethylcyclobutane-1-carboxamide]	517 nM	101 nM
CC(C)CCC(=O)N(C)c1cnc2[nH]c(-c3n[nH]c4c3CCC(C)(C)C4)nc2c1 [Example 106, N-(2-(6,6-Dimethyl-4,5,6,7-tetrahydro-1H-indazol-3-yl)-3H-imidazo[4,5-b]pyridin-6-yl)-N,4-dimethylpentanamide]	1090 nM	245 nM

Results, then the molecule that gave them:

IC50 [1]	IC50 [2]	SMILES
371 nM	47 nM	CC[C@H](C)C(=O)N(C)c1cnc2nc(-c3n[nH]c4c3C[C@@H]3C[C@]3(C)C4)[nH]c2c1 [Example 83, (S)-N,2-Dimethyl-N-(2-((4aS,5aR)-5a-methyl-1,4,4a,5,5a,6-hexahydrocyclopropa[f]indazol-3-yl)-1H-imidazo[4,5-b]pyridin-6-yl)butanamide]
304 nM	88 nM	CN(C(=O)C(C)(C)CN1CCOCC1)c1cnc2nc(-c3n[nH]c4c3C[C@@H]3C[C@]3(C)C4)[nH]c2c1 [Example 53, N,2,2-Trimethyl-N-(2-((4aS,5aR)-5a-methyl-1,4,4a,5,5a,6-hexahydrocyclopropa[f]indazol-3-yl)-1H-imidazo[4,5-b]pyridin-6-yl)-3-morpholinopropanamide]
205 nM	38 nM	CC[C@@H](C(=O)N(C)c1cnc2[nH]c(-c3n[nH]c4c3C[C@@H]3C[C@]3(C)C4)nc2c1)N1CCOCC1 [Example 4, (S)-N-Methyl-N-(2-((4aS,5aR)-5a-methyl-1,4,4a,5,5a,6-hexahydrocyclopropa[f]indazol-3-yl)-3H-imidazo[4,5-b]pyridin-6-yl)-2-morpholinobutanamide]
189 nM	51 nM	CN(C(=O)CC1CCOCC1)c1cnc2nc(-c3n[nH]c4c3C[C@@H]3C[C@]3(C)C4)[nH]c2c1 [Example 52, N-Methyl-N-(2-((4aS,5aR)-5a-methyl-1,4,4a,5,5a,6-hexahydrocyclopropa[f]indazol-3-yl)-1H-imidazo[4,5-b]pyridin-6-yl)-2-(tetrahydro-2H-pyran-4-yl)acetamide]
182 nM	21 nM	CN(C(=O)C1CCCC1)c1cnc2nc(-c3n[nH]c4c3C[C@@H]3C[C@]3(C)C4)[nH]c2c1 [Example 81, N-Methyl-N-(2-((4aS,5aR)-5a-methyl-1,4,4a,5,5a,6-hexahydrocyclopropa[f]indazol-3-yl)-1H-imidazo[4,5-b]pyridin-6-yl)cyclopentanecarboxamide]
147 nM	24 nM	CC(C(=O)N(C)c1cnc2[nH]c(-c3n[nH]c4c3C[C@@H]3C[C@]3(C)C4)nc2c1)C1CCOCC1 (stereo partly drawn) [Example 9, N-Methyl-N-(2-((4aS,5aR)-5a-methyl-1,4,4a,5,5a,6-hexahydrocyclopropa[f]indazol-3-yl)-3H-imidazo[4,5-b]pyridin-6-yl)-2-(tetrahydro-2H-pyran-4-yl)propanamide]
233 nM	59 nM	CN(C(=O)CC(C)(C)C(F)F)c1cnc2[nH]c(-c3n[nH]c4c3CCC(C)(C)C4)nc2c1 [Example 99, N-(2-(6,6-Dimethyl-4,5,6,7-tetrahydro-1H-indazol-3-yl)-3H-imidazo[4,5-b]pyridin-6-yl)-4,4-difluoro-N,3,3-trimethylbutanamide]
313 nM	42 nM	CCCC(=O)N(C)c1cnc2nc(-c3n[nH]c4c3C[C@@H]3C[C@]3(C)C4)[nH]c2c1 [Example 71, N-Methyl-N-(2-((4aS,5aR)-5a-methyl-1,4,4a,5,5a,6-hexahydrocyclopropa[f]indazol-3-yl)-1H-imidazo[4,5-b]pyridin-6-yl)butyramide]
